Assay results from article PMC5614969, “High-Affinity Functional Fluorescent Ligands for Human β-Adrenoceptors” (Scientific Reports, 2017).

Columns and labels:
β2AR [1] = target: T1, β2AR (Homo sapiens, UniProt P07550); assay: cAMP FRET sensor (TEpacVV) agonist assay in HEK 293 cells; type: cell-based; details: for intracellular cAMP level: addition of probe to the cells, 60 min at room temperature (Suppl. Fig. 13)
Experimental: Upon cAMP binding, the sensor undergoes a conformational change resulting in a decrease of the FRET efficiency between two fluorescent proteins: mTurquoise - a version of cyan fluorescent protein (CFP) as the donor, and yellow fluorescent protein (YFP) as the acceptor (Fig. 3a).
The intracellular cyclic adenosine monophosphate (cAMP) levels were determined with HEK 293 cells expressing a 3′,5′-cAMP FRET sensor. The cells were a generous gift from Ruud Hovius from École poly-technique fédérale de Lausanne (EPFL). The cAMP production induces a conformational switch in ^TEpac^VV and causes a decrease in FRET efficiency, i.e. a decreased energy transfer between the two fluorescent proteins (donor mTurquoise and acceptor YFP)[32].
The culture was maintained by subculturing the cells every 4 to 5 days using the standard trypsinization procedure. Before measurements, cells were trypsinated and transferred in a 96-well glass bottom plate (MatTek Corporation; Cat. No. P96GC-1.5–5-F) to contain 10,000–30,000 cells per well in 200 µL of DMEM media. After 24 h incubation in 5% CO2 at 37 °C, the cells were washed with HBSS pH 7.2 (200 µL), and the wells were filled with 200 µL HBSS. The DMSO stock solutions of the fluorescent probes were diluted 5,000 times in HBSS and used in experiments. […] The fluorescent ligand solutions of different concentrations in HBSS were premixed with the isoprenaline solution. 50 µL of a final solution was added to each well and the measurement was started upon addition and continued for 1 h in 10 min intervals between the readouts (inclusive).
The ligands were added using an automated pipette to initiate the sensor response. FRET readout from the cAMP sensor was performed on a multiwell plate reader Spark 20 M (Tecan) at room temperature (25 °C). Fluorescence readout amplitudes were calculated from time series for different ligand concentrations, following background subtraction (media only). […] Data were derived from 3 independent experiments and each independent experiment was performed in triplicate.
Sensor response R(CFP/FRET) was calculated using (1):1 R(CFP/FRET)=(FimTurquoise−FbkgmTurquoise)/(FiFRET−FbkgFRET) where F i ^mTurquoise – mTurquoise fluorescence intensity in the wells with cells; F bkg ^mTurquoise - mTurquoise fluorescence intensity in the control wells without cells; F i ^FRET – FRET signal intensity in the wells with cells; F bkg ^FRET – FRET signal intensity in the control wells without cells. For every result, R(CFP/FRET) ratio was normalized to the R(CFP/FRET) response of DMSO sample.

β2AR-YFP fusion protein = target: T2, β2AR-YFP fusion protein (Homo sapiens, UniProt P07550); assay: Confocal imaging of living U2OS cells expressing β2AR-YFP (staining, internalization, competitive displacement, no-wash); type: cell-based; details: for Receptor internalization / Staining performance: U2OS cells expressing β2AR-YFP; for Staining performance: 610CP ligands at 1.9 µM (19) and 2.5 µM (16); for Competitive displacement: 100 nM probe (5 nM ab118171) with 10 µM unlabeled BI-167107 or carazolol, 30 min
T2 construct: host or cells: U2OS
T2 sequence (P07550 whole entry, the tested form may be a part): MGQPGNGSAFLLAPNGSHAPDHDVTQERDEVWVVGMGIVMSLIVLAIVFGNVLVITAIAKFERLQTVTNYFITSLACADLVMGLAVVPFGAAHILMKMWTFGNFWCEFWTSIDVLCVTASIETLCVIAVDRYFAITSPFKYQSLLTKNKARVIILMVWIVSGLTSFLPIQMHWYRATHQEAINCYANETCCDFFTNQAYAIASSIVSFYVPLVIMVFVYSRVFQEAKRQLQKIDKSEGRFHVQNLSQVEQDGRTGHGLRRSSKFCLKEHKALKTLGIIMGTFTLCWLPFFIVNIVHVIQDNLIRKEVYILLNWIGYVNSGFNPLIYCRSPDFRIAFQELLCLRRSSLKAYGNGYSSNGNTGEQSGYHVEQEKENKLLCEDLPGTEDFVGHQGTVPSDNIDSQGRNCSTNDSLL
Experimental: U2OS cells (ATCC) were cultured in high-glucose DMEM (Dulbecco’s Modified Eagle medium, Thermo Fisher Scientific) supplemented with GlutaMAX-1 (Thermo Fisher Scientific) and 10% fetal bovine serum (FBS) (Thermo Fisher Scientific) in a humidified 5% CO2 incubator at 37 °C. CAPAN-1 cells (ATCC) were cultured in McCoy’s 5a Medium Modified supplemented with 10% fetal bovine serum (FBS) (Thermo Fisher Scientific) in a humidified 5% CO2 atmosphere at 37 °C. Cells were split every 3–5 days or at confluence. Cells were seeded in glass bottom 12-well plates (MatTek Corporation). […] We used 200,000 cells per well, 3 µg plasmid DNA and 3 µl of Lipofectamine 2000.
We performed imaging 48–72 h after transfection. Staining of the transfected cell was performed in Hanks’ balanced salt solution (HBSS, Lonza) without Phenol Red for 30–40 min at room temperature (to minimize internalization). Samples were washed two times with HBSS, and cells were imaged in DMEM (Thermo Fisher Scientific) supplemented with GlutaMAX-1 (Thermo Fisher Scientific) and 10% fetal bovine serum (FBS). For all staining experiments with cells, stock solutions of dyes in DMSO were used, and final DMSO content was < 0.5%. Imaging was performed on Leica SP8 (Leica Microsystems) or Abberior STED (Abberior Instruments GmbH) microscopes.
Competitive displacement experiment was performed in living U2OS cells expressing β2AR-YFP fusion protein.
Confocal imaging was performed on a Leica SP8 (Leica Microsystems, Mannheim, Germany) inverted confocal microscope equipped with an HC PL APO CS2 63x/1.40 Oil objective. Images were acquired using a 700 Hz bidirectional scanner, pixel size of 70 nm × 70 nm, pinhole of 95.6 µm diameter(1 AU) and frame averaging of 2.

β2AR [2] = target: T1, β2AR; assay: Staining and competitive binding in CAPAN-1 cells at endogenous β2AR expression; type: cell-based; details: for receptor staining: 100 nM probe; for competitive binding with excess unlabeled ligand: 100 nM probe (5 nM ab118171) with 10 µM BI-167107 or carazolol
Experimental: To study the selectivity of β2AR staining at the endogenous expression levels, which are much lower compared to those in transiently β2AR expressing U2OS cells, we tested the performance of BI-167107 probes in pancreatic CAPAN-1 cells (Fig. 7c–f). […] Low density of β2AR in the plasma membrane of CAPAN-1 cells allowed us to measure of the lateral resolution in the STED images. When the cells were incubated with 100 nM BI-PEG-KK114 (18) ligand, we observed two-fold improvement in the resolution resulting in apparent structures of ~100 nm (Fig. 7d; Supplementary Table 4).
For staining of CAPAN-1 cells, fluorescent probes or mixtures of a probe and a competitor were incubated in McCoy’s 5a Medium Modified supplemented with 10% fetal bovine serum (FBS) for 30–40 min at room temperature. Afterwards, the samples were washed two times with HBSS, and cells were imaged in DMEM (Thermo Fisher Scientific) supplemented with GlutaMAX-1 (Thermo Fisher Scientific) and 10% fetal bovine serum (FBS). Imaging performed on Leica SP8 (Leica Microsystems) or Abberior STED (Abberior Instruments GmbH) microscopes.

[3] = pH dependence of ligand fluorescence; type: physicochemical
Experimental: pH dependence of βAR ligands fluorescence were recorded on a multiwell plate reader Spark 20 M (Tecan) in 96-well glass bottom plates (MatTek Corporation; Cat. No. PBK96G-1.5-5-F) in PBS solutions (pH 4.7–8.0) at room temperature (25 °C). The 100x stock solutions of ligands were prepared in DMSO.

T1 sequence (P07550 whole entry): as the sequence (P07550 whole entry, the tested form may be a part) above

SMILES	EC50 (β2AR [1]; HEK 293 expressing 3′,5′-cAMP FRET sensor, 30 min incubation, room temperature, read-out: EC50 (mean ± SD)) [nM]	intracellular cAMP level (β2AR [1])	Receptor internalization (β2AR-YFP fusion protein)	Staining performance (β2AR-YFP fusion protein)	Competitive displacement (β2AR-YFP fusion protein; U2OS β2AR-YFP)	confocal staining at 100 nM (β2AR-YFP fusion protein; U2OS β2AR-YFP, 100 nM, 40 min, room temperature, washed)	confocal staining at 250 nM (β2AR-YFP fusion protein; U2OS β2AR-YFP, 250 nM, 40 min, room temperature, washed)	receptor staining (β2AR [2])	competitive binding with excess unlabeled ligand (β2AR [2])	emission intensity decrease ([3]; at pH 8.0) [%]	Receptor internalization (β2AR-YFP fusion protein; listed as carazolol-KK114 (24))	confocal staining at all tested concentrations (β2AR-YFP fusion protein; U2OS β2AR-YFP, 5 nM, 100 nM, 250 nM, 40 min)	Competitive displacement (β2AR-YFP fusion protein; U2OS β2AR-YFP, listed as Carazalol-KK114 (24))	fluorescence intensity retained relative to maximal ([3]; pH ~7 versus pH ~5)
Cc1c(CCC(=O)NCCOCCOCCNC(=O)CCN(C)C(=O)c2c(F)c(F)c(F)c(F)c2C2=c3cc4c5c(c3Oc3c2cc2c6c3CCCN6C(C)(C)C=C2CS(=O)(=O)O)CCC[N+]=5C(C)(C)C=C4CS(=O)(=O)[O-])cccc1CC(C)(C)NCC(O)c1ccc(O)c2c1OCC(=O)N2 (centres unmarked) [BI-PEG-KK114 (18)]	5.7 ± 2.2	induces intracellular cAMP level increase	triggered extensive βAR internalization and Yes	Strong	no signal and Yes	performed well	performed well	plasma membrane localized receptor staining	no background fluorescence	30	–	–	–	–
CN(CCC(=O)NCCOCCOCCOCCOCCC(=O)NCCC(C)(C)NCC(O)COc1cccc2[nH]c3ccccc3c12)C(=O)c1c(F)c(F)c(F)c(F)c1C1=c2cc3c4c(c2Oc2c1cc1c5c2CCCN5C(C)(C)C=C1CS(=O)(=O)O)CCC[N+]=4C(C)(C)C=C3CS(=O)(=O)[O-] (centres unmarked) [Carazolol-KK114 (24)]	–	did not change	Weak	Strong	Yes	–	–	plasma membrane localized receptor staining	efficiently displaced	–	did not change	specific staining	no background fluorescence	about 90%
